Here are results for seven compounds from US8822517B2, “Arylosulfonamides for the treatment of CNS diseases” (Adamed SP. Z O.O., priority 2010, dated 2014).

The target of assay [1] is T1, adrenergic α2C receptor (Homo sapiens, UniProt P18825).
T1 sequence (P18825 1-462): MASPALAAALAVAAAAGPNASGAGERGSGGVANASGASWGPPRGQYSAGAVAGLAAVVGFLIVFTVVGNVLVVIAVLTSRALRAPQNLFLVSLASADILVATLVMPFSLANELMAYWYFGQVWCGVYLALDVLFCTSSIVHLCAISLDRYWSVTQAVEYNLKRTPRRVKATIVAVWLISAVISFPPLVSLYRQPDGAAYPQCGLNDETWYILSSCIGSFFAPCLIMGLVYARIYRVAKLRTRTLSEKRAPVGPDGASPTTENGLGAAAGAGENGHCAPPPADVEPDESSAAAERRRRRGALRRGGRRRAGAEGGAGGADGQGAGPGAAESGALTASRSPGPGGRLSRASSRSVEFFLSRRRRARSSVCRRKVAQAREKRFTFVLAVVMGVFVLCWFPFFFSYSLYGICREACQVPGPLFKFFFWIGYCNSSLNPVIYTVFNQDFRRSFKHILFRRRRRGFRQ
The assay is described as follows: Binding assay α2C (h), [3H]RX 821002, CHO cells. To be noted: read-out: α2C [%]. Further details: expressed in transfected cells; host or cells: CHO cells. The method in brief: (§1)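 Specific ligand binding was taken as total minus non-specific binding, with the latter defined in the presence of surplus unlabelled ligand. Each compound was tested at a single 1×10^−6 M concentration.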

Assay [2] has as its target T2, dopaminergic D2 receptor (Homo sapiens, UniProt P14416). The assay is described as follows: Binding assay D2S (h), [3H]methyl-spiperone, HEK-293 cells. Also on record: expressed in transfected cells; host or cells: HEK-293 cells. To be noted: read-out: D2 [%]. The method in brief: as §1
Target sequence in this assay (P14416 1-414 isoform P14416-2): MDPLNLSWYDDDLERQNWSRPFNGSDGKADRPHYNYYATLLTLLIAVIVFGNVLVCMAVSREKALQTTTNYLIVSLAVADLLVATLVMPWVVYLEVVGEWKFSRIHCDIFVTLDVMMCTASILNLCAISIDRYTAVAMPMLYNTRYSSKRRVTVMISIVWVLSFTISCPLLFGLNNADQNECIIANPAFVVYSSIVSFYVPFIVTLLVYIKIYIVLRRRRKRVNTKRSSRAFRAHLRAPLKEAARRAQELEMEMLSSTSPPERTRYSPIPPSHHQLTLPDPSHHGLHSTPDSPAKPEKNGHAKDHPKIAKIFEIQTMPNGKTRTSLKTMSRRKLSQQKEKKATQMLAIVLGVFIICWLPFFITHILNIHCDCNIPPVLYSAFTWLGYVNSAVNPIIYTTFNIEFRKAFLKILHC
Assay [3] relates to sigma σ receptor. The assay is described as follows: Binding assay σ (non-selective), [3H]DTG, rat cerebral cortex. The note with it: percent inhibition of control specific binding; compounds tested at 1×10^−6 M. The procedure, abridged:
as §1

Assay [4] concerns the target histaminergic H1 receptor (Homo sapiens, UniProt P35367). In words: Binding assay H1 (h), [3H]pyrilamine, HEK-293 cells. Also on record: expressed in transfected cells; host or cells: HEK-293 cells. To be noted: read-out: H1 [%]. The procedure, abridged: as §1
For assay [5], the target named is T3, adrenergic α1A receptor (Homo sapiens, UniProt P35348).
T3 sequence (P35348 1-466): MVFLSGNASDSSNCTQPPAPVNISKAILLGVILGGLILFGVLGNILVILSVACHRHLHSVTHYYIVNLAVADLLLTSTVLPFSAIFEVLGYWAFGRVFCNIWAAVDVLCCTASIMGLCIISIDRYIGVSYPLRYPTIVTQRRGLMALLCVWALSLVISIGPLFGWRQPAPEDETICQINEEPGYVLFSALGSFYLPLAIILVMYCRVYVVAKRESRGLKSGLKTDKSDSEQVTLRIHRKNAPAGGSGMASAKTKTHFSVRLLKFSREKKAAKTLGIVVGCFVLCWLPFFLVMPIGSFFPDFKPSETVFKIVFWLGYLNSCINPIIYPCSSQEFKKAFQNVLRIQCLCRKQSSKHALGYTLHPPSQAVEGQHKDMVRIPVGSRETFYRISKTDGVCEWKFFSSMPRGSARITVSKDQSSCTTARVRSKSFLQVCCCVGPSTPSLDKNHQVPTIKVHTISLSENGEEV
The assay is described as follows: Cellular functional assay, adrenergic α1A receptor (agonism/antagonism). Format: cell-based. The note with it: for activation at 1 µM: agonist effect, percent of control specific agonist response, compounds tested at 1×10^−6M, read-out: α1A -ag [%]; for inhibition at 1 µM: read-out: α1A -antag. [%]. As to the method:
[…]. The compounds were tested at the concentration of 1×10^−6M.
Conditions and methodology (by reference to the literature) of cellular functional assays are given in Table 13 and the tests results for representative compounds are given in Table 14 (dopaminergic receptor D2), in Table 15 (dopaminergic receptor D3), in Table 16 (serotoninergic receptor 5-HT1A), in Table 17 (serotoninergic receptor 5-HT2A), in Table 18 (serotoninergic receptor 5-HT6), in Table 19 (serotoninergic receptor 5-HT7), in Table 20 (adrenergic α1 receptor), in Table 21 (adrenergic α2C receptor), in Table 22 (histaminergic H1 receptor) and in Table 23 (serotoninergic 5-HT2C receptor). In the Tables ag refers to agonism, and antag to antagonism).

Assay [6] addresses T4, serotoninergic 5-HT1A receptor (Homo sapiens, UniProt P08908).
T4 sequence (P08908 1-422): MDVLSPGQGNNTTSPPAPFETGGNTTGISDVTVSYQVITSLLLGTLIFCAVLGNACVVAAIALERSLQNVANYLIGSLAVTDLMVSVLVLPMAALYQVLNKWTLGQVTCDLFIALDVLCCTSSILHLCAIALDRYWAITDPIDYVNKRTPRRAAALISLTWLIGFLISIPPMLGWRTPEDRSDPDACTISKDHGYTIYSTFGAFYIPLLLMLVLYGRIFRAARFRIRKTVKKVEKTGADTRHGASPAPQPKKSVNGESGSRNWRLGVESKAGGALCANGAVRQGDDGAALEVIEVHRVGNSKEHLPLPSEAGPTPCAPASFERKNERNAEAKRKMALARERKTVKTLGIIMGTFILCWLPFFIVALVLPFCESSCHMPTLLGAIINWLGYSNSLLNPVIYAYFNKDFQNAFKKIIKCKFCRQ
The assay is described as follows: Binding assay 5-HT1A (h), [3H]8-OH-DPAT, HEK-293 cells. Also on record: expressed in transfected cells; host or cells: HEK-293 cells. To be noted: read-out: 5-HT1A. The method in brief:
as §1

Assay [7] deals with T1, adrenergic α2C receptor. The assay is described as follows: Cellular functional assay, adrenergic α2C receptor (agonism/antagonism). Format: cell-based. To be noted: for activation at 1 µM: agonist effect, percent of control specific agonist response, compounds tested at 1×10^−6M, read-out: α2C −ag [%]; for inhibition at 1 µM: read-out: α2C −antag. [%]. The procedure:
(§2) The compounds were tested at the concentration of 1×10^−6M.
(§3) In the Tables ag refers to agonism, and antag to antagonism).

The target of assay [8] is serotoninergic 5-HT7 receptor (Homo sapiens, UniProt P34969). In words: Cellular functional assay, serotoninergic 5-HT7 receptor (agonism/antagonism). It counts as cell-based. The note with it: for activation at 1 µM: agonist effect, percent of control specific agonist response, compounds tested at 1×10^−6M, read-out: 5-HT7-ag [%]; for inhibition at 1 µM: read-out: 5-HT7-antag. [%]. As to the method: as §2, §3

For assay [9], the target named is T2, dopaminergic D2 receptor. The assay is described as follows: Cellular functional assay, dopaminergic D2 receptor (agonism/antagonism). It counts as cell-based. The note with it: HEK293; for activation at 1 µM: agonist effect, percent of control specific agonist response (3 μM dopamine for control), 1×10^−6 M, D2S (h), HEK-293 cells, read-out: D2-ag [%]; for inhibition at 1 µM: read-out: D2-antag. [%]. The procedure:
as §2, §3
Target sequence in this assay (P14416 whole entry): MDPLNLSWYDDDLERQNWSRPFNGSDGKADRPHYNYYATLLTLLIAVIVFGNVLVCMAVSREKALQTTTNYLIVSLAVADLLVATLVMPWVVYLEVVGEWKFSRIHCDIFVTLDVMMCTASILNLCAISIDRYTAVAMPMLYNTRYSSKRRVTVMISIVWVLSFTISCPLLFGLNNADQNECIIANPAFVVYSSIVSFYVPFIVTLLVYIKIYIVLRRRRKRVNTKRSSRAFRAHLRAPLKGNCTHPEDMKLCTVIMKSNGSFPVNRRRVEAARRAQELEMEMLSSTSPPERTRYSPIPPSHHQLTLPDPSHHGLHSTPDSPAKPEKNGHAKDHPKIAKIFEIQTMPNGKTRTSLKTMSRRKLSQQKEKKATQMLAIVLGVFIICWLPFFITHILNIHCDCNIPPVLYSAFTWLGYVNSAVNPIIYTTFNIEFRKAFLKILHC

Assay [10] addresses T5, muscarinic M3 receptor (Homo sapiens, UniProt P20309).
T5 construct: expressed in transfected cells; host or cells: CHO cells
The assay is described as follows: Binding assay M3 (h), [3H]4-DAMP, CHO cells. The note with it: read-out: M3 [%]. The method in brief:
as §1

Sequence of serotoninergic 5-HT7 receptor (P34969 whole entry): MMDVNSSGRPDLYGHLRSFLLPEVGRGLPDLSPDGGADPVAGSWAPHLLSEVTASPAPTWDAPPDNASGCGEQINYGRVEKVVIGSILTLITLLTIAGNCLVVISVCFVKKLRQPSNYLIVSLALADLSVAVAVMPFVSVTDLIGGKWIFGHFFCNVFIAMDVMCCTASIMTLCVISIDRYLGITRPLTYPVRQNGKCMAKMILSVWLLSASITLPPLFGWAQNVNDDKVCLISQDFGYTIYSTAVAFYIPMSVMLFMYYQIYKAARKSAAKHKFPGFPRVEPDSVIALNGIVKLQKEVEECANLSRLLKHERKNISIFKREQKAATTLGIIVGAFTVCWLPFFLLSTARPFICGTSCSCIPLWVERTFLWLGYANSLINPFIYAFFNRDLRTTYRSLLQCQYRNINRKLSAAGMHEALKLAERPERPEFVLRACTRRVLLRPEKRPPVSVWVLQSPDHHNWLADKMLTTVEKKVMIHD
Sequence of histaminergic H1 receptor (P35367 whole entry): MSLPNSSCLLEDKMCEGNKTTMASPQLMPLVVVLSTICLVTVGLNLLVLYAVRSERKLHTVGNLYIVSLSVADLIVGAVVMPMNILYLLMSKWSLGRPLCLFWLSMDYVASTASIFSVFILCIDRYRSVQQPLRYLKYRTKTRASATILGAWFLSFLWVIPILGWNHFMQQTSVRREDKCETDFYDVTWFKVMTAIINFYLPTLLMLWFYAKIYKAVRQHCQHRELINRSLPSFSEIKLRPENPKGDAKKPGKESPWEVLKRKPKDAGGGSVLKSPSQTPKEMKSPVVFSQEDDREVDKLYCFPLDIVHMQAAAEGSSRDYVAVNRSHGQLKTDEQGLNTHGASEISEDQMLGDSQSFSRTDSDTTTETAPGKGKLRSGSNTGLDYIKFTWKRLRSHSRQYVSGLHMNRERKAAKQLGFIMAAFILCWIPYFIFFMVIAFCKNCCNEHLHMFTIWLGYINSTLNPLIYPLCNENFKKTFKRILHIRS
T5 sequence (P20309 whole entry): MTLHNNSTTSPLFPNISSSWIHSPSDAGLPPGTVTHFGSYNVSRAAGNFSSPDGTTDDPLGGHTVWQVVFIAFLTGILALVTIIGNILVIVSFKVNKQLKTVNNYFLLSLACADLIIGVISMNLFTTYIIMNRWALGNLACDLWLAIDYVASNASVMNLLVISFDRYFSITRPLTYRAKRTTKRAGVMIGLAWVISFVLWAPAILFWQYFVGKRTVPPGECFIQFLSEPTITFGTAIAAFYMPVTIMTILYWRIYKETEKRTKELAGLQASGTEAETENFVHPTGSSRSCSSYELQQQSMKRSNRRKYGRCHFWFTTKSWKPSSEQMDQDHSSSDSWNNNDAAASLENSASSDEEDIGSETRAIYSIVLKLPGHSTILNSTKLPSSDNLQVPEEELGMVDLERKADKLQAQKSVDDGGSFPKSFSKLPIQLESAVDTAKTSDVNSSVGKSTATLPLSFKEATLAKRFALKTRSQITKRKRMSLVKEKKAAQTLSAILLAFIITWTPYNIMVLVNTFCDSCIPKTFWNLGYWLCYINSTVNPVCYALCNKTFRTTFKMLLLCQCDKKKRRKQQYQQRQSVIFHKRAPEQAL

On to `O=c1[nH]c2ccc(S(=O)(=O)NCCCN3CCN(c4nsc5ccccc45)CC3)cc2o1` [Compound 8, N-(3-(4-(1,2-Benzothiazol-3-yl)piperazin-1-yl)propyl)-2-oxo-3H-1,3-benzoxazole-6-sulphonamide], for which the inhibition at 1 µM was 93% in assay [1]; 98% in [2]; 97% in assay [4]; 100% in [5]; 100% in assay [6]; 1% in assay [7]. Further, the inhibition at 1 µM in assay [8] was 82%; in [9] it was 85%; in assay [10] it was -11%. Also, the “σ [%]” value in [3] amounted to 17%. Also, the activation at 1 µM was 0% in assay [5], -16% in assay [7], -1% in [8] and 7% in [9].
`O=S(=O)(NCCCCN1CCN(c2noc3ccccc23)CC1)c1cccc2ccccc12` [Compound 13, N-(4-(4-(1,2-Benzoxazol-3-yl)piperazin-1-yl)butyl)naphthalene-1-sulphonamide]: the inhibition at 1 µM was found to be 99% in assay [1]; 99% in assay [2]; 84% in assay [4]; 100% in assay [5]; 89% in assay [6]; 18% in [7]. Also, the values for the inhibition at 1 µM in [8], in assay [9] and in assay [10] were 95%, 95% and -1%, respectively. In addition, the “σ [%]” value in assay [3] is given as 87%. For the same compound, the activation at 1 µM was 0% in [5], -7% in [7], 1% in assay [8] and 2% in assay [9].
Take `O=S(=O)(NCCCCN1CCN(c2noc3ccccc23)CC1)c1ccc2ccccc2c1` [Compound 14, N-(4-(4-(1,2-Benzoxazol-3-yl)piperazin-1-yl)butyl)naphthalene-2-sulphonamide]: the inhibition at 1 µM in [1] amounted to 100%; in assay [2], 99%; in [4], 88%; in assay [5], 100%; in assay [6], 88%; in assay [7] it was 12%. Further, the inhibition at 1 µM in assay [8] is 85%; in assay [9], 98%; in assay [10], -6%. The “σ [%]” value in assay [3] stood at 40%. The activation at 1 µM in assay [5] is 0%; in assay [7], -3%; in assay [8] it was -1%; in assay [9], 4%.
For `O=c1[nH]c2ccc(S(=O)(=O)NCCCCN3CCN(c4noc5ccccc45)CC3)cc2o1` [Compound 16, N-(4-(4-(1,2-Benzoxazol-3-yl)piperazin-1-yl)butyl)-2-oxo-3H-1,3-benzoxazole-6-sulphonamide], the inhibition at 1 µM in assay [1] stood at 101%; in assay [2], 99%; in [4] it was 97%; in assay [5], 100%; in [6], 93%; in assay [7], 9%. Besides, the inhibition at 1 µM was 80% in [8], 98% in [9] and -1% in assay [10]. In assay [3], the “σ [%]” value is on record as 2%. The activation at 1 µM in [5] is 0%; in assay [7] it was -7%; in assay [8], -1%; in [9], 4%.
With `Cc1cccc(S(=O)(=O)NCCCN2CCC(c3noc4cc(F)ccc34)CC2)c1` [Compound 22, N-[3-[4-(6-Fluoro-1,2-benzoxazol-3-yl)piperidin-1-yl]propyl]-3-methylbenzenesulphonamide], the inhibition at 1 µM in assay [1] was found to be 100%; in assay [2] it was 96%; in assay [4], 88%; in [5], 100%; in assay [6], 75%; in [7], 12%. For the same compound, the figures for the inhibition at 1 µM in assay [8], in assay [9] and in assay [10] were 100%, 99% and 12%, respectively. Further, the “σ [%]” value in [3] was 92%. Besides, the activation at 1 µM is 0% in assay [5], -8% in assay [7], -1% in [8] and 2% in assay [9].
For the compound `O=S(=O)(NCCCCN1CCN(c2cccc3[nH]ccc23)CC1)c1ccc2ccccc2c1` [Compound 26, N-{4-[4-(1H-Indol-4-yl)piperazin-1-yl]butyl}naphthalene-2-sulphonamide], the inhibition at 1 µM in assay [1] was determined as 100%; in assay [2] it was 97%; in assay [4] it was 52%; in assay [5], 100%; in assay [6], 100%; in assay [7] it was 53%. The inhibition at 1 µM in assay [8] stood at 13%; in assay [9], 99%; in [10], 17%. Besides, the “σ [%]” value in [3] is recorded as 99%. In addition, the activation at 1 µM is 0% in [5], 25% in [7], 14% in [8] and 29% in [9].
Take `O=S(=O)(NCCCCN1CCN(c2cccc3[nH]ccc23)CC1)c1ccccc1` [Compound 27, N-{4-[4-(1H-Indol-4-yl)piperazin-1-yl]butyl}benzenesulphonamide]: the inhibition at 1 µM in assay [1] came to 100%; in assay [2] it was 90%; in assay [4] it was 27%; in assay [5] it was 100%; in assay [6] it was 99%; in assay [7], 31%. Further, the inhibition at 1 µM in assay [8] was found to be 8%; in [9], 100%; in assay [10] it was 46%. In [3], the “σ [%]” value was determined as 78%. The activation at 1 µM is 1% in [5], 3% in assay [7], 5% in [8] and 40% in assay [9].
